Assay results reported in US20180000085A1, “USE OF PICOLINAMIDE COMPOUNDS WITH FUNGICIDAL ACTIVITY” (DOW AGROSCIENCES LLC, priority 2014, published 2018).

How the values were obtained:
Type in all cases: in vivo
Zymoseptoria tritici = assay: Leaf blotch of wheat (SEPTTR) disease control on wheat seedlings; details: low volume application, 125.1 g/H; for SEPTTR 1DP, LV activity at 125.1 g/H (% Control rating): 1 Day Protectant; for SEPTTR 3DC, LV activity at 125.1 g/H (% Control rating): 3 Day Curative; for SEPTTR 1DP disease control rating, LV activity at 125.1 g/H: 1 day protectant; for SEPTTR 3DC disease control rating, LV activity at 125.1 g/H: 3 day curative
Puccinia triticina = assay: Wheat brown rust (PUCCRT) disease control on wheat seedlings; details: low volume application, 125.1 g/H; for PUCCRT 1DP, LV activity at 125.1 g/H (% Control rating): 1 Day Protectant; for PUCCRT 3DC, LV activity at 125.1 g/H (% Control rating): 3 Day Curative; for PUCCRT 1DP disease control rating, LV activity at 125.1 g/H: 1 day protectant; for PUCCRT 3DC disease control rating, LV activity at 125.1 g/H: 3 day curative
Phakopsora pachyrhizi = assay: Asian soybean rust (PHAKPA) disease control; set-up: key: A: > 80; B: ≤ 80; C: Not Tested; D: No Activity Observed in the Reported Assay; details: 25 ppm; for PHAKPA disease control, 1DP: 1 Day Protectant; for PHAKPA disease control, 3DC: 3 Day Curative

Compound	SEPTTR 1DP, LV activity at 125.1 g/H (% Control rating) (Zymoseptoria tritici)	SEPTTR 3DC, LV activity at 125.1 g/H (% Control rating) (Zymoseptoria tritici)	PUCCRT 1DP, LV activity at 125.1 g/H (% Control rating) (Puccinia triticina)	PUCCRT 3DC, LV activity at 125.1 g/H (% Control rating) (Puccinia triticina)	PHAKPA disease control, 1DP (Phakopsora pachyrhizi)	PHAKPA disease control, 3DC (Phakopsora pachyrhizi)	SEPTTR 1DP disease control rating, LV activity at 125.1 g/H (Zymoseptoria tritici)	SEPTTR 3DC disease control rating, LV activity at 125.1 g/H (Zymoseptoria tritici)	PUCCRT 1DP disease control rating, LV activity at 125.1 g/H (Puccinia triticina)	PUCCRT 3DC disease control rating, LV activity at 125.1 g/H (Puccinia triticina)
CCCOC[C@@H](Oc1ccccc1)[C@H](C)OC(=O)[C@H](C)NC(=O)c1nccc(OC)c1OC(C)=O [Cmpd 474]	B (≤ 80)	A (> 80)	A (> 80)	A (> 80)	B (≤ 80)	B (≤ 80)	–	–	–	–
CCC(CC)[C@@H](Oc1cccc(F)c1)[C@H](C)OC(=O)[C@H](C)NC(=O)c1nccc(OC)c1OC(C)=O [Cmpd 597]	A (> 80)	A (> 80)	A (> 80)	A (> 80)	A (> 80)	B (≤ 80)	–	–	–	–
COc1ccnc(C(=O)N[C@@H](C)C(=O)O[C@@H](C)[C@H](Oc2ccc(Cl)cc2)C(C)C)c1OCOC(C)=O [Cmpd 563]	B (≤ 80)	A (> 80)	A (> 80)	A (> 80)	A (> 80)	B (≤ 80)	–	–	–	–
CCC(CC)[C@@H](Oc1cc(F)cc(Cl)c1)[C@H](C)OC(=O)[C@H](C)NC(=O)c1nccc(OC)c1OCOC(C)=O [Cmpd 592]	A (> 80)	A (> 80)	A (> 80)	A (> 80)	A (> 80)	A (> 80)	–	–	–	–
COc1ccnc(C(=O)N[C@@H](C)C(=O)O[C@@H](C)[C@H](Oc2ccc(F)cc2)C2CCCC2)c1OC(C)=O [Cmpd 919]	–	–	–	–	A (> 80)	D	A (> 80)	A (> 80)	A (> 80)	A (> 80)
COc1ccnc(C(=O)N[C@@H](C)C(=O)O[C@@H](C)[C@H](Oc2ccccc2)c2ccc(F)cc2)c1OCOC(C)=O [Cmpd 924]	–	–	–	–	A (> 80)	D	A (> 80)	A (> 80)	A (> 80)	A (> 80)
CCC(CC)[C@H](Oc1cccc(F)c1)[C@H](C)OC(=O)[C@H](C)NC(=O)c1nccc(OC)c1OCOC(C)=O [Cmpd 668]	–	–	–	–	B (≤ 80)	B (≤ 80)	A (> 80)	A (> 80)	A (> 80)	A (> 80)
COc1ccnc(C(=O)NC(C)C(=O)OC(C)C(Oc2ccc(C)cc2)C2CCCC2)c1OCOC(C)=O (stereo not shown) [Cmpd 916]	–	–	–	–	A (> 80)	D	A (> 80)	B (≤ 80)	A (> 80)	A (> 80)
COc1ccnc(C(=O)NC(C)C(=O)OC(C)C(Oc2cccc(F)c2)C2CCCC2)c1OCOC(C)=O (stereo not shown) [Cmpd 909]	–	–	–	–	A (> 80)	B (≤ 80)	A (> 80)	A (> 80)	A (> 80)	A (> 80)
CCC(CC)[C@@H](Oc1ccccc1Cl)[C@H](C)OC(=O)[C@H](C)NC(=O)c1nccc(OC)c1OC(C)=O [Cmpd 604]	B (≤ 80)	A (> 80)	A (> 80)	A (> 80)	B (≤ 80)	B (≤ 80)	–	–	–	–
COc1ccnc(C(=O)N[C@@H](C)C(=O)O[C@@H](C)[C@H](Oc2ccc(Cl)cc2)C(C)C)c1OC(C)=O [Cmpd 568]	B (≤ 80)	A (> 80)	A (> 80)	A (> 80)	A (> 80)	B (≤ 80)	–	–	–	–
CCCO[C@H](c1ccccc1)[C@H](C)OC(=O)[C@H](C)NC(=O)c1nccc(OC)c1OC(C)=O [Cmpd 884]	–	–	–	–	A (> 80)	D	B (≤ 80)	A (> 80)	A (> 80)	A (> 80)
COc1ccnc(C(=O)NC(C)C(=O)OC(C)C(OCC(C)C)C2CCCC2)c1OCOC(C)=O (stereo not shown) [Cmpd 915]	–	–	–	–	A (> 80)	B (≤ 80)	B (≤ 80)	A (> 80)	A (> 80)	A (> 80)
COc1ccnc(C(=O)NC(C)C(=O)OC(C)C(Oc2ccc(F)cc2)C2CCCC2)c1OCOC(C)=O (stereo not shown) [Cmpd 910]	–	–	–	–	A (> 80)	B (≤ 80)	A (> 80)	A (> 80)	A (> 80)	A (> 80)
C=CC(C)C(Oc1ccccc1)C(C)OC(=O)C(C)NC(=O)c1nccc(OC)c1OC(C)=O (stereo not shown) [Cmpd 693]	–	–	–	–	A (> 80)	B (≤ 80)	B (≤ 80)	A (> 80)	A (> 80)	A (> 80)
COc1ccnc(C(=O)NC(C)C(=O)OC(C)C(Oc2ccc(Cl)cc2)C2CCCC2)c1OCOC(C)=O (stereo not shown) [Cmpd 912]	–	–	–	–	B (≤ 80)	B (≤ 80)	A (> 80)	A (> 80)	A (> 80)	A (> 80)
COc1ccnc(C(=O)N[C@H](C(=O)O[C@@H](C)[C@H](Oc2cccc(Cl)c2)C(C)C)C(C)C)c1OC(C)=O [Cmpd 569]	B (≤ 80)	A (> 80)	A (> 80)	A (> 80)	A (> 80)	B (≤ 80)	–	–	–	–
COc1ccnc(C(=O)N[C@@H](C)C(=O)O[C@@H](C)[C@H](OCC(C)C)c2ccccc2)c1OC(C)=O [Cmpd 879]	–	–	–	–	A (> 80)	B (≤ 80)	B (≤ 80)	A (> 80)	A (> 80)	A (> 80)
COc1cccc(OC(C2CCCC2)C(C)OC(=O)C(C)NC(=O)c2nccc(OC)c2OCOC(C)=O)c1 (stereo not shown) [Cmpd 917]	–	–	–	–	B (≤ 80)	B (≤ 80)	B (≤ 80)	A (> 80)	A (> 80)	A (> 80)
CC[C@H](NC(=O)c1nccc(OC)c1OCOC(C)=O)C(=O)O[C@@H](C)[C@H](Oc1cc(F)cc(Cl)c1)c1ccccc1 [Cmpd 643]	A (> 80)	A (> 80)	A (> 80)	B (≤ 80)	–	–	–	–	–	–
